One assay concerns the target T1, glucocorticoid receptor (Homo sapiens, UniProt P04150).
T1 construct: purchased Pan Vera (Madison, Wis., USA)
T1 sequence (P04150 1-777): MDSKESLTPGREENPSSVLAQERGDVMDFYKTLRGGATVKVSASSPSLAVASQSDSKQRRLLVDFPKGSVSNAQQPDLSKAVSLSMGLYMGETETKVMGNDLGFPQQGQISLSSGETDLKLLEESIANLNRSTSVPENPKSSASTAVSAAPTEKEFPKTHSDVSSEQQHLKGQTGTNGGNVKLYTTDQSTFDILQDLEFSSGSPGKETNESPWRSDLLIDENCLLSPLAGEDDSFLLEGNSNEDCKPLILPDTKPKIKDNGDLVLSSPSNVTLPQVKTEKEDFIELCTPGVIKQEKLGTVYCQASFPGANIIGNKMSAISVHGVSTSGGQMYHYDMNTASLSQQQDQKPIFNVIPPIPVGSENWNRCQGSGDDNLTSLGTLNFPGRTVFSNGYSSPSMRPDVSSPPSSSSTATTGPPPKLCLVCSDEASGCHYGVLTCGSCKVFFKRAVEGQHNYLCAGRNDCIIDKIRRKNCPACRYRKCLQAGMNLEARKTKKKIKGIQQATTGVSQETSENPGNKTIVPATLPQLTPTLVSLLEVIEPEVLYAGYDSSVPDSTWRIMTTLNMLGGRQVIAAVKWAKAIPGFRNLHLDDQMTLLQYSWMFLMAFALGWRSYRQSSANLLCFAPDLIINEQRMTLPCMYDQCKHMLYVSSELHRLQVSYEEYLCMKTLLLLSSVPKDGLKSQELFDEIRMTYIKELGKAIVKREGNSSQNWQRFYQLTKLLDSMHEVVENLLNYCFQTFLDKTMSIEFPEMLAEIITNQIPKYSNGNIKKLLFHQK
Description: Glucocorticoid receptor binding assay (fluorescence polarisation competition). Conditions: displacement of fluorescent glucocorticoid, 22° C., 2 hours; read-out: pIC50 glucocorticoid receptor binding assay (converted). The method, then: Glucocorticoid Receptor Binding Assay
The ability of compounds to bind to the glucocorticoid receptor was determined by assessing their ability to compete with fluorescent-labelled glucocortioid using a kit supplied by Pan Vera (Madison, Wis., USA) or using in house reagents. Compounds were solvated and diluted in DMSO, and transferred directly into assay plates. Fluorescent glucocorticoid and partially purified glucocorticoid receptor with a stabilisation peptide were added to the plates and incubated at 22° C. for 2 hours in the dark. Binding of the compound was assessed by analysing the displacement of fluorescent ligand by measuring the decrease in fluorescence polarisation signal from the mixture.
(In fluorescence polarisation assays a small probe gives low polarisation when free and higher when bound to something large.)

Assay [1] relates to MMTV driven gene expression. Description: Glucocorticoid mediated transactivation of MMTV driven gene expression (luciferase reporter). It counts as cell-based, Human. Conditions: A549 or MG63 cells, 6 hr incubation. An excerpt:
Glucocorticoid Mediated Transactivation of MMTV Driven Gene Expression
Human A549 lung epithelial cells or human MG63 osteosarcoma were engineered to contain a renialla luciferase gene under the control of the distal region of the LTR from the mouse mammary tumour virus as previously described (Austin, R. H., Maschera, B., Walker, A., Fairbairn, L., Meldrum, E., Farrow, S. and Uings, I. J. Mometasone furoate is a less specific glucocorticoid than fluticasone propionate. European Respiratory Journal 2002 20 1386-1392).
Compounds were solvated and diluted in DMSO, and transferred directly into assay plates such that the final concentration of DMSO was 0.7%. Following the addition of cells (40K per well), plates were incubated for 6 hr. Luciferase activity was determined using the Firelight kit (Packard, Pangbourne, UK).
On the technique in general: In a reporter assay the amount or activity of a reporter protein is the signal.

For another assay, the system named is NFkB activity. The assay is described as follows: Glucocorticoid mediated transrepression of NFkB activity (A549 ELAM promoter alkaline phosphatase reporter, TNFα stimulated). The class given is cell-based. The following applies: A549 cells, 3 ng/ml human recombinant TNFα, 16 hours; read-out: pIC50 NFkB assay (converted). An excerpt: Glucocorticoid mediated Transrepression of NFkB activity.
Human A549 lung epithelial cells were engineered to contain a secreted placental alkaline phosphatase gene under the control of the distal region of the NFkB dependent ELAM promoter as previously described in Ray, K. P., Farrow, S., Daly, M., Talabot, F. and Searle, N. “Induction of the E-selectin promoter by interleukin 1 and tumour necrosis factor alpha, and inhibition by glucocorticoids” Biochemical Journal. 1997 328 707-15.
Compounds were solvated and diluted in DMSO, and transferred directly into assay plates such that the final concentration of DMSO was 0.7%. Following the addition of cells (40K per well), plates were incubated for 1 hr prior to the addition of 3 ng/ml human recombinant TNFα. Following continued incubation for 16 hours, alkaline phosphatase activity was determined by measuring the change in optical density at 405 nm with time following the addition of 0.7 volumes of assay buffer (1 mg/ml p-nitrophenylphosphate dissolved in 1 M diethanolamine, 0.28M NaCl, 0.5 mM MgCl2).

With `CCC1(CC(O)(CNc2cccc3ncccc23)C(F)(F)F)CCCc2ccccc21` (stereo not drawn) [Example 6-D1, 3-(1-Ethyl-1,2,3,4-tetrahydro-1-naphthalenyl)-1,1,1-trifluoro-2-[(5-guinolinylamino)methyl]-2-propanol], the IC50 on glucocorticoid receptor is < 100 nM; in the assay on NFkB activity it was < 31.6 nM. Also, the “efficacy in the MMTV transactivation assay compared to the NFkB assay” value in assay [1] was “reduced efficacy”.

For the origin of these results see US7902224B2, “Tetrahydro-naphthalene derivatives as glucocorticoid receptor modulators” (Glaxo Group Limited, priority 2004, dated 2011).
